Experimental data from patent US20050203065A1, “Method of treating ischemia reperfusion injury using adenosine receptor antagonists” (priority 2002, published 2005).

Tests used:
[1] = target: T1, recombinant rat A2b adenosine receptors (Rattus norvegicus, UniProt P29276); assay: FLIPR calcium functional assay, rat A2b receptor in HEK-293 cells (NECA); type: cell-based; details: HEK293 cells
T1 construct: expressed in transfected cells; host or cells: HEK-293
T1 sequence (P29276 1-332): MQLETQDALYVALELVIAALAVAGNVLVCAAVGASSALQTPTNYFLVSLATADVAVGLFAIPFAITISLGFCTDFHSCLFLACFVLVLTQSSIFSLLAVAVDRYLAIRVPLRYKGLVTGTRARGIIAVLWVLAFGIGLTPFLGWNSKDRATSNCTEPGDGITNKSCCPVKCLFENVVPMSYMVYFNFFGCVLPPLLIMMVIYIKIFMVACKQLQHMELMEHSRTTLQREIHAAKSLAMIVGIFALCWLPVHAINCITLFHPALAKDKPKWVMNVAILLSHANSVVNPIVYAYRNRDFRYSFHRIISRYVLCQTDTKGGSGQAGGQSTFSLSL
Experimental: FIG. 10 depicts FLIPR assay of BG9928 with recombinant […] A2b adenosine receptors stably expressed in HEK-293 cells. FLIPR assays measuring the fraction of control response observed with 10, 100, and 300 nM BG9928 in HEK-293 cells expressing rat A2b adenosine receptors in the presence of increasing concentrations of the agonist (NECA) (top graph). The bottom graph is a Schild analysis of the data presented in the top graph.
Cells were seeded into 96-well tissue culture plates with black walls and clear bottoms, and cultured to an […] confluent monolayer. Without removing the media, an equal volume of dye (from calcium assay kit purchased from Molecular Devices) was added. Cell plates were incubated for 1 hour at 37° C. and were then transferred to the-FLIPR unit (Molecular Devices). […]
The FLIPR integrates an argon laser excitation source, a 96-well pipettor, and a detection system utilizing a CCD (Charged Coupled Device) imaging camera. Fluorescence emissions from the 96 wells were monitored simultaneously at excitation and emission wavelength of 488 and 520 nm, respectively. Fluorescence data were collected at 0.1-sec intervals before and after simultaneous rapid addition of compounds to the 96-well plate. Results were read as relative fluorescence units (RFU). […]

[2] = target: T2, human A2B adenosine receptors (Homo sapiens, UniProt P29275); assay: Radioligand competitive binding, human A2b receptor; parameters: expressed in transfected cells; host or cells: HEK-293; details: HEK 293 membranes
T2 sequence (P29275 1-332): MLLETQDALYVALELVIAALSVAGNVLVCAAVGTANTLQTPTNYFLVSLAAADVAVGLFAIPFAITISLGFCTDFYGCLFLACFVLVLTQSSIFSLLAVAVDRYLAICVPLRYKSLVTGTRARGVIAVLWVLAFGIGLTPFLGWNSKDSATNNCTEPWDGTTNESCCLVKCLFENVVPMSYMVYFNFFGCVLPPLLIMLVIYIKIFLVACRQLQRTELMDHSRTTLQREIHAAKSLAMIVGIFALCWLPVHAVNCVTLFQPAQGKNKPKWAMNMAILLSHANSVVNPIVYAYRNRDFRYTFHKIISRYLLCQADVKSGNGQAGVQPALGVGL
Experimental: (§1) Binding assays were terminated by filtration.
(§2) Membranes (40-70 μg membrane protein), radioligands, and varying concentrations of competing ligands were incubated in triplicate in 0.1 ml buffer HE plus 2 units/mL adenosine deaminase for 2.5 hours at 21° C. The radioligands used for competitive binding assays were: [^3H]-8-cyclopentyl-1,3-dipropyxanthine ([^3H]-DPCPX) (NEN, Boston, Mass.) for A1 and A2b adenosine receptors, [^3H]-4-(2-[7-amino-2-(furyl)(1,2,4)triazole(2,3-a)(1,3,5)triazin-5-ylaminoethyly)phenol ([^3H] ZM241385) for A2a adenosine receptors (Tocris, Bristol, UK), and [^125Iodine]-labeled N6-(4-aminobenzyl)-9-(5-(methylcarbonyl)-β-D-ribofuranosyl) adenine ([^125I]-AB-MECA) or [^3H]-R-N^6-phenylisopropyladenosine (H^3R]-R-PIA) for A3 adenosine receptors (both from NEN, Boston, Mass.). Nonspecific binding was measured in the presence of 10 μM 5′N ethylcarboxamidoadenosine (NECA, from RBI-Sigma, Natick, Mass.) for A1 and A2b receptors, or 10 μM xanthine amino congener (XAC, from RBI-Sigma, Natick, Mass.) for A2a receptors. Binding assays were terminated by filtration over Whatman GF/C glass fiber filters using a BRANDEL cell harvester (Gaithersburg, Md.).

[3] = target: T3, recombinant human A2a adenosine receptors (Homo sapiens, UniProt P29274); assay: Radioligand competitive binding, human A2a receptor ([3H]-ZM241385)
T3 construct: purchased PerkinElmer (Boston, Mass.); host or cells: HEK 293
T3 sequence (P29274 whole entry): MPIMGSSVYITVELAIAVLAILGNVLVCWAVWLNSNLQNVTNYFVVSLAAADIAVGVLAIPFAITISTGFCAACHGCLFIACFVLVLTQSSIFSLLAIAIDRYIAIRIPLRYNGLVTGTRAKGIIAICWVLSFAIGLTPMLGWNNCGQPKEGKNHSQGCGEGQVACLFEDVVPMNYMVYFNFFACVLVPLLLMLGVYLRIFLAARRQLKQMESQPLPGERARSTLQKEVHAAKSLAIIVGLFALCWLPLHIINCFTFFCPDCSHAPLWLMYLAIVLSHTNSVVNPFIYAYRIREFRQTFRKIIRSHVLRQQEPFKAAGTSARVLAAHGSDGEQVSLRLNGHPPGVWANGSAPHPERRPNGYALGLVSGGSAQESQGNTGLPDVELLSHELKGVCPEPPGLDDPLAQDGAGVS
Experimental: as §1, §2

Q: For `CCCn1c(=O)c2[nH]c(C34CCC(CCC(=O)O)(CC3)CC4)nc2n(CCC)c1=O` [BG 9928, 3-[4-(2,6-dioxo-1,3-dipropyl-2,3,6,7-tetrahydro-1H-purin-8-yl)-bicyclo[2.2.2]oct-1-yl]-propionic acid], which pA2 ([1]; rat A2b, Schild analysis) is on record?
A: 6.59

Q: What about the Kb ([1]; rat, null methodology) of the same compound?
A: 0.257 µM

Q: What about the Ki [2] of the same compound?
A: 0.0885 ± 0.021 µM

Q: And the Ki [3]?
A: 4.06 µM
